The values that follow come from patent US20060141077A1, “Pest controlling composition and the use thereof” (ORGANOX AB, priority 2002, published 2006).

Data set [1] deals with Rhopalosiphum padi. As to the kind of experiment: Olfactometer response to odour of barley plants exposed to chemicals. As to conditions: treated plant vs untreated plant. Format: in vivo. The source says:
Exposure of barley plants to volatile chemicals was done in perspex ‘two-chamber cages’ (Pettersson et al. 1999) attached to a vacuum tank. Air was taken into the first chamber through a hole in the cage wall, passed into the second chamber and was then drawn out from the top of this cage to a vacuum tank before being vented outside the room. Plants were placed in the second chamber, and chemicals were released from microcapillary tubing which hung in the first chamber. Plants were exposed for 5 days, after which time they were removed and used in tests of aphid behaviour. Control plants grew in identical cages with empty microcapillary tubes. Responses of R. padi migrants to chemical odours were tested in a 4-way olfactometer (Pettersson, 1970), consisting of an enclosed Perspex arena (12 cm diameter) with a central chamber and four side arms. Air was drawn from the centre of the olfactometer using a water pump, establishing distinct airflow in the side arms. An odour field was established by introducing a chemical (released from a […] capillary tube, or a whole menthol crystal, weight: 0.14 g) into one of the side arms. A single adult apterous aphid was introduced into the olfactometer, and its position was recorded every 3 minutes for 30 minutes. The number of visits to the treatment arm was compared with the mean number of visits to the control arms using a paired t-test. […]

Another data set has as its system Cavariella aegopodi. As to the kind of experiment: 4-way olfactometer, direct response to chemical odour. It is filed as in vivo. The conditions noted are these: FIG. 1.
The subject of data set [2] is Rhopalosiphum padi. Described as above. As to conditions: R. padi; visits to treatment arm vs control arms. Format: in vivo. The protocol: (§1) Responses of R. padi migrants to chemical odours were tested in a 4-way olfactometer (Pettersson, 1970), consisting of an enclosed Perspex arena (12 cm diameter) with a central chamber and four side arms. Air was drawn from the centre of the olfactometer using a water pump, establishing distinct airflow in the side arms. An odour field was established by introducing a chemical (released from a […] capillary tube, or a whole menthol crystal, weight: 0.14 g) into one of the side arms. A single adult apterous aphid was introduced into the olfactometer, and its position was recorded every 3 minutes for 30 minutes. The number of visits to the treatment arm was compared with the mean number of visits to the control arms using a paired t-test. Experiments were repeated 16-20 times (no. individual aphids tested), with the olfactometer turned through 90° between replicates to avoid positional bias. Olfactory responses to plants exposed to chemicals were done in a similar way, except that the odour sources consisted of whole plants enclosed in two-chamber cages attached directly to the olfactometer. In each olfactometer, one treated plant was compared with one untreated plant.

For another data set, the system named is Aphis fabae. The data set is described as above. As to conditions: FIG. 1. Format: in vivo.
A further data set concerns several aphid species. Nature of the data set: Repellency to aphids (conclusions). It is filed as in vivo. The conditions noted are these: conclusion statement. How it is done:
as §1

Data set [3] concerns aphids. Nature of the data set: Test of aphid settling on exposed barley plants. It is filed as in vivo. As to conditions: barley exposed for 3, 4 and 6 days; FIG. 3. An excerpt:
Exposure of barley plants to volatile chemicals was done in perspex ‘two-chamber cages’ (Pettersson et al. 1999) attached to a vacuum tank. Air was taken into the first chamber through a hole in the cage wall, passed into the second chamber and was then drawn out from the top of this cage to a vacuum tank before being vented outside the room. Plants were placed in the second chamber, and chemicals were released from microcapillary tubing which hung in the first chamber. […] Control plants grew in identical cages with empty microcapillary tubes. A 50 ml polystyrene tube was placed over the youngest fully developed leaf. The upper end of the tube was covered with a net and the lower end with a foam plastic plug with a slit for the leaf. To minimise mechanical damage to the test plant, a stick was used to support the tube. Ten mixed-instar apterous aphids were placed in the tube and after 2 hours the number of aphids settled (not walking) on the leaf was recorded. Occasionally aphids were able to escape from the tubes, but the results were expressed as a proportion of the number of aphids originally introduced, in case the propensity of an aphid to escape from the tube was influenced by the experimental treatment of the plant. The number of replicates (tubes) varied between experiments, but there were always equal numbers of control and treatment plants. […]

In data set [4] the test system is aphids. The conditions noted are these: applied by spraying in cereal plots, pilot experiment; cited from earlier work.
For data set [5] the following is noted: human adults; cited from earlier work.
For data set [6] the following is noted: orally in rabbits; cited from earlier work.
For data set [7] the following is noted: cited from earlier work.

As to `CC1CCC(C(C)C)C(O)C1` (stereo not shown) [menthol, 5-methyl-2-(1-methylethyl)-cyclohexanol], the “response to odour of plants exposed to the chemical” value with Rhopalosiphum padi [1] is on record as “repelled”. Moreover, the “response to chemical odour in the olfactometer” value with Cavariella aegopodi, in the data set on Rhopalosiphum padi [2] and with Aphis fabae was “strongly repelled” in each case. The “repellency for several aphid species” value in the data set with several aphid species is recorded as “strong repellents”.
For the compound `CC12CCC(CC1)C(C)(C)O2` [1,8-cineole, 1,3,3-trimethyl-2-oxabicyclo[2.2.2.]octane], the “response to odour of plants exposed to the chemical” value with Rhopalosiphum padi [1] was “less attractive”. Further, the “response to chemical odour in the olfactometer” value in the data set with Rhopalosiphum padi [2] is “did not respond”. In the data set on aphids [3], the “aphid settling on plants exposed to the substance” value was “settled significantly less”.
For `COC(=O)c1ccccc1O` [methyl salicylate, 2-hydroxybenzoic acid methyl ester], the “aphid settling in the field” value in the data set with aphids [4] is listed as “significantly reduced aphid settling”. The average lethal dose in [5] was 30 mL. Besides, in data set [6], the 50% lethal dose (LD50) is 2800 mg/kg. Moreover, in data set [7], the solubility in water entry is given as “slightly soluble”. Further, the “repellency for several aphid species” value in the data set with several aphid species is on record as “strong repellents”.

The term LD50 denotes the dose at which mortality reaches 50%.
